Experimental data published in US20230391741A1, “AGAROFURAN COMPOUND, PREPARATION METHOD THEREFOR, AND APPLICATION THEREOF” (BEIJING CHY PHARMACEUTICAL TECHNOLOGY CO, LTD., priority 2021, published 2023).
Several values for one entry are separate records, joined by “and”; a condition that tells them apart may be missing. Identical values can stand only once.

Tested on: male ICR mice
Test: Elevated plus maze (EPM) test, intraperitoneal injection
Type: in vivo, mouse
Settings: for Closed arm number of entries / Closed arm residence time / Open arm number of entries / Open arm residence time / Open arm/closed arm frequency ratio / Open arm/closed arm time ratio: mice, intraperitoneal, 5 min before entering the maze
From the text: The active ingredient used in the following pharmacological experiment, the compound shown in Formula (I) of the present application, is the final product in Example 1 of the present application, namely (1R,6S,9R)6,10,10-trimethyl-2-(4,4,4-trifluorobutyl)-11-oxatricyclo [7.2.1.0^1,6]dodec-2-ene (hereinafter referred to as Compound 2). Compound 2 and an excipient PVP (povidone K30) were mixed in an ethanol solution in a mass ratio of 1:15, spin-dried, and prepared into a preparation form of Compound 2 (the following Compound 2 refers to the preparation form of Compound 2). The preparation form of which the active ingredient was 4-butyl-α-agarofuran (BAF for short) was used as a positive drug, a preparation method for this preparation was the same as that of the preparation of Compound 2, and the following BAF refers to this preparation of BAF. PVP was a blank control. In addition, the administration dose was calculated according to a crude drug.
This model is one of the most commonly used animal models in the research of antianxiety drugs. The elevated plus maze is composed of an open arm (30×5×0.5 cm) and an closed arm (30×8×15 cm) that are crossed in a positive cross shape, and the instrument is suspended 50 cm above the ground. Due to the narrowness, suspension, and brightness of the open arm, there may be internal “fear” or conflict in the open arm, and on the contrary, it more complies with the nature of rodents in the closed arm. 5 min after administration, a mouse is placed in the center of the maze, and its head faces to the open arm. Open-arm and closed-arm entries and residence times in both arms during the experimental period (usually 5 min) are recorded respectively. The percentages of the open arm entries and the open arm residence times respectively accounting for the total entries (sum of the open arm and closed arm entries) and the total time (sum of the open arm and closed arm residence times) are calculated, as an indicator for evaluating the anxiety. Generally speaking, a drug is considered to have antianxiety effects in the case that the open arm cumulative residence time is prolonged without reducing the open arm and closed arm entries.
The experiment used male Institute of Cancer Research (ICR) mice (purchased from Beijing Weitong Lihua Experimental Animal Technology Co., Ltd.), the weight was 18-20 g, the mice were randomly divided into 7 groups according to the weight, and there were 13 mice in each group. Grip adaptation training was conducted on the mice before the experiment. Before the experiment, the mice were fasted for 12 hours. It was administered by an intraperitoneal injection mode. 4-butyl-α-agarofuran (BAF for short) was used as a positive drug, and PVP was a blank control. The specific grouping and disposal modes are as follows:
During detection, after intraperitoneal injection of BAF/Compound 2, each mouse was immediately placed in an open animal box and allowed to move freely for 5 min, then the mouse was placed on a central platform of the elevated plus maze, its head faced to a fixed open arm. The detection was started, timed for 5 min, and recorded with a supermaze software by using a camera head. After all the experiments were completed, the residence times (s) of the mice in the open arm and the closed arm, the open arm and closed arm entries, and the time ratios and frequency ratios of the open arm and closed arm entries were recorded with the supermaze software. 1 was added to the number of entry arms with a latency of 0.

SMILES: CCCCC1=CCC[C@@]2(C)CC[C@@H]3C[C@]12OC3(C)C [BAF, 4-butyl-α-agarofuran, reference compound]
- Closed arm number of entries (2 mg/kg, 2 mg/kg): 10.31 ± 1.13 and 11.22 ± 1.5 and 9.90 ± 1.19
- Closed arm residence time (2 mg/kg, 2 mg/kg): 143.9 ± 9.32 s and 148.89 ± 8.27 s and 146.67 ± 7.95 s
- Open arm number of entries (2 mg/kg, 2 mg/kg): 8.62 ± 0.92 and 8.78 ± 1.1 and 8.80 ± 1.14
- Open arm residence time (2 mg/kg, 2 mg/kg): 115.97 ± 9.71 s and 110.32 ± 8.91 s and 110.04 ± 6.30 s
- Open arm/closed arm frequency ratio (2 mg/kg, 2 mg/kg): 0.85 ± 0.06 and 0.80 ± 0.07 and 0.89 ± 0.07
- Open arm/closed arm time ratio (2 mg/kg, 2 mg/kg): 0.93 ± 0.16 and 0.79 ± 0.12 and 0.80 ± 0.11
- Closed arm number of entries (4 mg/kg, 4 mg/kg): 9.23 ± 0.57 and 8.89 ± 0.79 and 9.29 ± 0.68
- Closed arm residence time (4 mg/kg, 4 mg/kg): 153.35 ± 7.35 s and 162.64 ± 5.96 s and 144.17 ± 12.09 s
- Open arm number of entries (4 mg/kg, 4 mg/kg): 7.38 ± 0.58 and 6.56 ± 0.4 and 8.29 ± 0.87
- Open arm residence time (4 mg/kg, 4 mg/kg): 117.29 ± 7.44 s and 106.13 ± 3.91 s and 128.84 ± 11.89 s
- Open arm/closed arm frequency ratio (4 mg/kg, 4 mg/kg): 0.82 ± 0.07 and 0.77 ± 0.06 and 0.91 ± 0.09
- Open arm/closed arm time ratio (4 mg/kg, 4 mg/kg): 0.82 ± 0.11 and 0.66 ± 0.04 and 0.98 ± 0.18
- Closed arm number of entries (8 mg/kg, 8 mg/kg): 9.85 ± 0.72 and 9.78 ± 1.00 and 9.60 ± 0.87
- Closed arm residence time (8 mg/kg, 8 mg/kg): 162.19 ± 10.92 s and 158.24 ± 14.9 s and 165.34 ± 13.19 s
- Open arm number of entries (8 mg/kg, 8 mg/kg): 7.69 ± 0.91 and 8.11 ± 1.27 and 7.10 ± 0.95
- Open arm residence time (8 mg/kg, 8 mg/kg): 110.07 ± 9.77 s and 113.25 ± 12.84 s and 107.74 ± 11.86 s
- Open arm/closed arm frequency ratio (8 mg/kg, 8 mg/kg): 0.76 ± 0.05 and 0.76 ± 0.07 and 0.72 ± 0.06
- Open arm/closed arm time ratio (8 mg/kg, 8 mg/kg): 0.76 ± 0.10 and 0.81 ± 0.13 and 0.74 ± 0.12

SMILES: CC1(C)O[C@]23C[C@H]1CC[C@]2(C)CCC=C3CCCC(F)(F)F [Compound 2, (1R,6S,9R)6,10,10-trimethyl-2-(4,4,4-trifluorobutyl)-11-oxatricyclo [7.2.1.0^1,6]dodec-2-ene]
- Efficacy compared with BAF (at both low and medium doses, especially low dose): better efficacy than BAF
- Efficacy compared with BAF (at low doses): better efficacy
- Antianxiety effects in elevated plus maze (intraperitoneal doses of 2.4, 4.8 and 9.6 mg/kg): significant antianxiety effects
- Closed arm number of entries (2.4 mg/kg): 10.92 ± 0.84
- Closed arm residence time (2.4 mg/kg): 112.68 ± 8.68 s
- Open arm number of entries (2.4 mg/kg): 9.23 ± 0.47
- Open arm residence time (2.4 mg/kg): 144.06 ± 8.10 s
- Open arm/closed arm frequency ratio (2.4 mg/kg): 0.89 ± 0.06
- Open arm/closed arm time ratio (2.4 mg/kg): 1.48 ± 0.24
- Closed arm number of entries (4.8 mg/kg): 10.00 ± 0.57
- Closed arm residence time (4.8 mg/kg): 149.91 ± 8.22 s
- Open arm number of entries (4.8 mg/kg): 9.08 ± 0.69
- Open arm residence time (4.8 mg/kg): 118.65 ± 6.32 s
- Open arm/closed arm frequency ratio (4.8 mg/kg): 0.93 ± 0.07
- Open arm/closed arm time ratio (4.8 mg/kg): 0.86 ± 0.11
- Closed arm number of entries (9.6 mg/kg): 9.85 ± 1.08
- Closed arm residence time (9.6 mg/kg): 139.13 ± 11.37 s
- Open arm number of entries (9.6 mg/kg): 9.31 ± 1.12
- Open arm residence time (9.6 mg/kg): 115.0 ± 8.07 s
- Open arm/closed arm frequency ratio (9.6 mg/kg): 0.99 ± 0.10
- Open arm/closed arm time ratio (9.6 mg/kg): 0.93 ± 0.12
